Several values for one entry are separate records, joined by “and”; a condition that tells them apart may be missing. Equal values may be shown once. Toxic doses and inconclusive results are not listed. How the source made its calls: active means survival T/C of 150% or more; inactive means T/C below 125% in these data.
System: CD2F1 mice, L1210 leukemia ip, survival T/C
Assay: NCI In Vivo Anticancer Drug Screen. Data for tumor model L1210 Leukemia (intraperitoneal) in CD2F1 (CDF1) mice
Details: higher = longer survival
Outline: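 Tumor-bearing mice (transplanted tumor) were split into treated and vehicle control groups, and the measured endpoint of each treated group was divided by that of its vehicle controls.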

[1] = endpoint: mean survival time, dose: 100.0 mg/kg/injection, schedule: Q01DX009 (ip), vehicle: saline with Tween-80
[2] = endpoint: mean survival time, dose: 200.0 mg/kg/injection, schedule: Q01DX009 (ip), vehicle: saline with Tween-80
[3] = endpoint: mean survival time, dose: 400.0 mg/kg/injection, schedule: Q01DX009 (ip), vehicle: saline with Tween-80
[4] = endpoint: mean survival time, dose: 12.5 mg/kg/injection, schedule: Q01DX009 (ip), vehicle: saline with Tween-80
[5] = endpoint: mean survival time, dose: 25.0 mg/kg/injection, schedule: Q01DX009 (ip), vehicle: saline with Tween-80
[6] = endpoint: mean survival time, dose: 50.0 mg/kg/injection, schedule: Q01DX009 (ip), vehicle: saline with Tween-80
[7] = endpoint: mean survival time, dose: 50.0 mg/kg/injection, schedule: Q04DX003 (ip), vehicle: saline with Tween-80
[8] = endpoint: mean survival time, dose: 100.0 mg/kg/injection, schedule: Q04DX003 (ip), vehicle: saline with Tween-80
[9] = endpoint: mean survival time, dose: 100.0 mg/kg/injection, schedule: Q04DX002 (ip), vehicle: saline with Tween-80
[10] = endpoint: mean survival time, dose: 200.0 mg/kg/injection, schedule: Q04DX002 (ip), vehicle: saline with Tween-80
[11] = endpoint: mean survival time, dose: 400.0 mg/kg/injection, schedule: Q04DX002 (ip), vehicle: saline with Tween-80
[12] = endpoint: mean survival time, dose: 200.0 mg/kg/injection, schedule: Q04DX003 (ip), vehicle: saline with Tween-80

Measured: T/C

O=C1CC2(C(=O)N1CN1CCOCC1)c1ccccc1-c1ccccc12
inactive: endpoint: median survival time, dose: 25.0 mg/kg/injection, schedule: Q01DX009 (ip), vehicle: Klucel (hydroxypropylcellulose) (HPC) 103 % of control | endpoint: median survival time, dose: 50.0 mg/kg/injection, schedule: Q01DX009 (ip), vehicle: Klucel (hydroxypropylcellulose) (HPC) 102 % of control | endpoint: median survival time, dose: 100.0 mg/kg/injection, schedule: Q01DX009 (ip), vehicle: Klucel (hydroxypropylcellulose) (HPC) 96 % of control | endpoint: median survival time, dose: 200.0 mg/kg/injection, schedule: Q01DX009 (ip), vehicle: Klucel (hydroxypropylcellulose) (HPC) 100 % of control | endpoint: median survival time, dose: 400.0 mg/kg/injection, schedule: Q01DX009 (ip), vehicle: Klucel (hydroxypropylcellulose) (HPC) 107 % of control

COc1ccc2c(c1)C1CCCC(=O)C1N2 (configuration not stated)
inactive: [1] 97 % of control | [2] 91 % of control | [3] 91 % of control

CCOC(=O)Nc1cc(N)c2nc(CN(C)c3ccccc3)cnc2n1
inactive: endpoint: mean survival time, dose: 100.0 mg/kg/injection, schedule: Q01DX001 (ip), vehicle: other 91 % of control | endpoint: mean survival time, dose: 200.0 mg/kg/injection, schedule: Q01DX001 (ip), vehicle: other 94 % of control | endpoint: mean survival time, dose: 400.0 mg/kg/injection, schedule: Q01DX001 (ip), vehicle: other 91 % of control

COc1cccc(C(=O)C=C(C(F)(F)F)C(F)(F)F)c1
inactive: [4] 104 % of control | [5] 109 % of control

C=CC/C=C/C(C)(C)C
inactive: [6] 103 % of control | [1] 100 % of control | [2] 100 % of control

CC1Cc2c3ccc4ccccc4c3cc3cccc1c23 (configuration not stated) (tested in a mixture with another compound)
inactive: endpoint: mean survival time, dose: 75.0 mg/kg/injection, schedule: Q04DX002 (ip), vehicle: saline with Tween-80 105 % of control | endpoint: mean survival time, dose: 150.0 mg/kg/injection, schedule: Q04DX002 (ip), vehicle: saline with Tween-80 105 % of control | endpoint: mean survival time, dose: 300.0 mg/kg/injection, schedule: Q04DX002 (ip), vehicle: saline with Tween-80 97 % of control

c1ccc(CCNCc2ccccc2)cc1
inactive: [5] 94 % of control | [6] 98 % of control | [7] 104 % of control | [1] 88 % of control | [8] 97 % of control

O=C(O)c1ccc(CC2CCC2)cc1
inactive: [9] 96 % of control | [10] 96 % of control | [11] 89 % of control

Cc1ccc(S(=O)(=O)CC(=O)O)cc1
inactive: [8] 102 % of control | [12] 102 % of control

O=C1C=C(Nc2cccc(C(=O)O)c2)c2ccccc2C1=O
inactive: endpoint: mean survival time, dose: 75.0 mg/kg/injection, schedule: Q01DX001 (ip), vehicle: saline 101 % of control | endpoint: mean survival time, dose: 300.0 mg/kg/injection, schedule: Q01DX001 (ip), vehicle: saline 101 % of control

COc1ccc(-n2c(C)nc3c(cnn3C3OC(CO)C(O)C3O)c2=O)cc1 (configuration not stated)
inactive: endpoint: median survival time, dose: 12.5 mg/kg/injection, schedule: Q01DX005 (ip), vehicle: saline 103 % of control | endpoint: median survival time, dose: 25.0 mg/kg/injection, schedule: Q01DX005 (ip), vehicle: saline 102 % of control | endpoint: median survival time, dose: 50.0 mg/kg/injection, schedule: Q01DX005 (ip), vehicle: saline 105 % of control | endpoint: median survival time, dose: 100.0 mg/kg/injection, schedule: Q01DX005 (ip), vehicle: saline 111 % of control | endpoint: median survival time, dose: 200.0 mg/kg/injection, schedule: Q01DX005 (ip), vehicle: saline 103 % of control

COc1ccc(P(c2ccc(OC)cc2)c2ccc(OC)cc2)cc1
inactive: [7] 97 % of control | [8] 96 % of control | [12] 91 % of control

COc1cc(C=Nc2cccc3ccccc23)cc(OC)c1OC
inactive: endpoint: mean survival time, dose: 100.0 mg/kg/injection, schedule: Q01DX001 (ip), vehicle: saline with Tween-80 98 % of control | [1] 88 % of control and 93 % of control | [9] 89 % of control and 100 % of control | [8] 103 % of control | endpoint: mean survival time, dose: 200.0 mg/kg/injection, schedule: Q01DX001 (ip), vehicle: saline with Tween-80 95 % of control | [2] 91 % of control and 96 % of control | [10] 89 % of control and 96 % of control | [12] 96 % of control | endpoint: mean survival time, dose: 400.0 mg/kg/injection, schedule: Q01DX001 (ip), vehicle: saline with Tween-80 88 % of control | [3] 92 % of control and 95 % of control | [11] 96 % of control and 100 % of control | endpoint: mean survival time, dose: 400.0 mg/kg/injection, schedule: Q04DX003 (ip), vehicle: saline with Tween-80 92 % of control

O=c1c2ncn(C3CC(O)C(O)C(CO)O3)c2ncn1C1CC(O)C(O)C(CO)O1 (configuration not stated)
inactive: endpoint: mean survival time, dose: 12.5 mg/kg/injection, schedule: Q01DX005 (ip), vehicle: water 108 % of control | endpoint: mean survival time, dose: 25.0 mg/kg/injection, schedule: Q01DX005 (ip), vehicle: water 97 % of control | endpoint: mean survival time, dose: 50.0 mg/kg/injection, schedule: Q01DX005 (ip), vehicle: water 100 % of control | endpoint: mean survival time, dose: 100.0 mg/kg/injection, schedule: Q01DX005 (ip), vehicle: water 97 % of control | endpoint: mean survival time, dose: 200.0 mg/kg/injection, schedule: Q01DX005 (ip), vehicle: water 97 % of control

[Br][Ni][Br].[NH-]CC[NH-].[NH-]CC[NH-]
inactive: endpoint: mean survival time, dose: 25.0 mg/kg/injection, schedule: Q04DX002 (ip), vehicle: saline with Tween-80 104 % of control | endpoint: mean survival time, dose: 50.0 mg/kg/injection, schedule: Q04DX002 (ip), vehicle: saline with Tween-80 110 % of control

COc1cc(OC)c(NC(=O)Nc2ccc(SCC(=O)O)cc2)cc1Cl
inactive: [6] 93 % of control | [1] 89 % of control | [2] 86 % of control

c1ccc(-c2ccccc2NC2=NCCO2)cc1
inactive: endpoint: mean survival time, dose: 12.5 mg/kg/injection, schedule: Q04DX003 (ip), vehicle: saline 94 % of control | endpoint: mean survival time, dose: 25.0 mg/kg/injection, schedule: Q04DX003 (ip), vehicle: saline 94 % of control | endpoint: mean survival time, dose: 50.0 mg/kg/injection, schedule: Q04DX003 (ip), vehicle: saline 90 % of control

CNC1(C(=O)c2ccccc2)CC2CCC1C2 (configuration not stated)
inactive: endpoint: mean survival time, dose: 100.0 mg/kg/injection, schedule: Q01DX001 (ip), vehicle: saline 95 % of control | endpoint: mean survival time, dose: 200.0 mg/kg/injection, schedule: Q01DX001 (ip), vehicle: saline 96 % of control | endpoint: mean survival time, dose: 400.0 mg/kg/injection, schedule: Q01DX001 (ip), vehicle: saline 98 % of control

O=[N+]([O-])c1ccc(Sc2ccncn2)c([N+](=O)[O-])c1
inactive: endpoint: median survival time, dose: 6.25 mg/kg/injection, schedule: Q01DX009 (ip), vehicle: saline with Tween-80 101 % of control | endpoint: median survival time, dose: 12.5 mg/kg/injection, schedule: Q01DX009 (ip), vehicle: saline with Tween-80 102 % of control | endpoint: median survival time, dose: 25.0 mg/kg/injection, schedule: Q01DX009 (ip), vehicle: saline with Tween-80 103 % of control | endpoint: median survival time, dose: 50.0 mg/kg/injection, schedule: Q01DX009 (ip), vehicle: saline with Tween-80 105 % of control | endpoint: median survival time, dose: 100.0 mg/kg/injection, schedule: Q01DX009 (ip), vehicle: saline with Tween-80 113 % of control

COc1ccc2c(c1)CCN1C2CCN2CCCC21 (configuration not stated)
inactive: [8] 98 % of control | [12] 90 % of control

CCCCCCCCCCCCNC1=CC(=O)c2nccnc2C1=O
inactive: endpoint: mean survival time, dose: 6.25 mg/kg/injection, schedule: Q01DX009 (ip), vehicle: saline with Tween-80 98 % of control | [4] 95 % of control | [5] 91 % of control | [6] 91 % of control | [1] 95 % of control

CCOC(=O)N(CCCl)C(=O)C(C)C
inactive: endpoint: mean survival time, dose: 100.0 mg/kg/injection, schedule: Q04DX003 (ip), vehicle: saline 95 % of control | endpoint: mean survival time, dose: 200.0 mg/kg/injection, schedule: Q04DX003 (ip), vehicle: saline 92 % of control | endpoint: mean survival time, dose: 400.0 mg/kg/injection, schedule: Q04DX003 (ip), vehicle: saline 97 % of control
